Source: PubChem BioAssay AID1963841 (Molecular Pharmacology Branch, DTP, NCI, 2024)
Several values for one entry are separate records, joined by “and”; a condition that tells them apart may be missing. Identical values can stand only once.

Test system: 439559-082-T-J2-PDC spheroid viability
Experiment: Anticancer human tumor 439559-082-T-J2-PDC patient-derived colon adenocarcinoma cell line growth inhibition [POLQ]
Conditions: spheroids with HUVEC and MSC; for viability, T/C: stronger effect = lower value
Method: Multicellular complex tumor spheroid response to Polymerase (POL) inhibitors (novobiocin, ART-558, RP6685) in combination with a variety of drugs and investigational agents in selected tumor cell lines
The POL inhibitors (novobiocin, ART-558, and RP6685) were evaluated both individually and in combination with standard of care and investigational anticancer small molecules within a complex spheroid model of solid tumors. . Complex spheroids include a stromal component modeled by human endothelial cells (HUVEC) and fibroblasts modeled by human mesenchymal stem cells (MSCs). The concentration ranges selected for each drug and investigational agent were based upon clinically achievable concentrations if the clinical Cmax of the agent was known.
Compounds. The drugs and investigational agents: novobiocin (NSC847541), ART-558 (NSC835418), RP-6685 (NSC848927), peposertib (NSC802822), ceralasertib (NSC780249), elimusertib (NSC800525), camonsertib (NSC841442), AZD-1390 (NSC803789), olaparib (NSC753686), talazoparib (NSC767125), rucaparib (NSC756644), sotorasib (NSC818433), MRTX-1133 (NSC836407), SN-38 (NSC673596), topotecan (NSC609699), epotoside (NSC141540), doxorubicin (NSC123127), gemcitabine (NSC613327), 5-fluorouracil (NSC19893), paclitaxel (NSC125973), vemurafenib (NSC761431), MSA-2 (NSC828583), SN-011 (NSC837082), adavosertib (NSC754352), prexasertib (NSC758257), carboplatin (NSC241240) and oxaliplatin (NSC266046), were obtained from the National Cancer Institute (NCI) Developmental Therapeutics Program Chemical Repository (21). The FDA-approved anticancer drug set is available from the Developmental Therapeutics Program at https://dtp.cancer.gov/organization/dscb/obtaining/. […] The stock solutions were prepared in dimethyl sulfoxide (DMSO, Sigma-Aldrich, St. Louis, MO, cat. D2650), except for the platinum compounds which were prepared in saline (Quality Biological, Gaithersburg, MD, cat. 114-055-101), at 800-fold the tested concentration and stored at -70 degrees C prior to their use. All drugs and investigational agents were tested over a range starting from a high concentration at or near the clinical Cmax and decreasing in half-log increments. If the clinical Cmax for an agent had not been determined, the highest concentration tested was 10 microM, except for SN-38, which was tested at a high concentration of 1 microM.
Cell Culture. All cells were maintained in an incubator at 37 degrees C and 5% CO2 with 95% humidity. The PDC lines were cultured according to standard operating procedures established by the NCI PDMR (https://pdmr.cancer.gov). Table 3 of the manuscript, lists the cell lines along with the number of the three cell types plated to form the mct-spheroids and media for tumor cell growth. After thawing, all PDC lines, except 997537-175-T-J1-PDC and 415267-285-R-J2-PDC, were cultured in Matrigel-coated flasks prepared with a working solution of 1X Ham's F-12 nutrient mix, without supplementation (Thermo Fisher Scientific, cat. 11765054), 100 U/mL penicillin-streptomycin (Thermo Fisher Scientific, cat. 15140122), and 2.5% Matrigel (Corning Inc., Corning, NY, cat. 354248) for the first three passages. The two PDC lines 997537-175-T-J1-PDC and 415267-285-R-J2-PDC were cultured on uncoated flasks. The 857933-349-R-J2-PDC line was cultured in 6C/Colon 1B media containing advanced DMEM/F-12 (Thermo Fisher Scientific, cat. 12634028), 10 mM HEPES (Thermo Fisher Scientific, cat. 15630080), 1X GlutaMAX supplement (Thermo Fisher Scientific, cat. 35050061), 0.1 mg/mL primocin (InvivoGen, San Diego, CA, cat. ant-pm-2), 10% defined fetal bovine serum, heat inactivated (HyClone Laboratories Inc., Logan, UT, cat. SH30070.03HI), 50% L-WRN conditioned media (ATCC, cat. CRL-3276), 1.25 mM N-Acetyl-L-cysteine (Sigma-Aldrich, cat. A9165), 10 mM nicotinamide (Sigma-Aldrich, cat. N0636), 1X B-27 supplement (Thermo Fisher Scientific, cat. 17504044), 1X N-2 supplement (Thermo Fisher Scientific, cat. […]
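Further: spheroids exposed to compounds for seven days before readout.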
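Wherever viability, T/C is given: 100% = DMSO vehicle control viability.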

SMILES: COc1cccc2c1C(=O)c1c(O)c3c(c(O)c1C2=O)CC(O)(C(=O)CO)CC3OC1CC(N)C(O)C(C)O1 (centres undefined)
- viability, T/C (compound 0.0316 µM): 94.9% and 90.3% and 99.1%
- viability, T/C (compound 0.1 µM): 86.6% and 79.9% and 96.6%
- viability, T/C (compound 0.316 µM): 79.8% and 66.8% and 88%
- viability, T/C (compound 1 µM): 72.6% and 63.7% and 70.9%
- viability, T/C (compound 3.16 µM): 65% and 58.3% and 60.4%
- viability, T/C (compound 10 µM): 52.5% and 69.4% and 49.1%
- IC50 (curve of compound): > 10 µM and 9.81 µM

SMILES: COc1cc2cc(C(=O)CCC(=O)O)sc2cc1OC + Cc1cccc(N(C)C(=O)C2C(O)CCN2c2nc(C)cc(C(F)(F)F)c2C#N)c1
- IC50 (curve of first compound, second compound 0.0316 µM): > 10 µM
- IC50 (curve of first compound, second compound 0.1 µM): > 10 µM
- IC50 (curve of first compound, second compound 0.316 µM): > 10 µM
- IC50 (curve of first compound, second compound 1 µM): > 10 µM
- IC50 (curve of first compound, second compound 3.16 µM): > 10 µM
- IC50 (curve of first compound, second compound 10 µM): > 10 µM
- viability, T/C (second compound 0.0316 µM, first compound 0.0316 µM): 104%
- viability, T/C (second compound 0.0316 µM, first compound 0.1 µM): 92.7%
- viability, T/C (second compound 0.0316 µM, first compound 0.316 µM): 95.1%
- viability, T/C (second compound 0.0316 µM, first compound 1 µM): 101%
- viability, T/C (second compound 0.0316 µM, first compound 3.16 µM): 100%
- viability, T/C (second compound 0.0316 µM, first compound 10 µM): 84.8%
- viability, T/C (second compound 0.1 µM, first compound 0.0316 µM): 107%
- viability, T/C (second compound 0.1 µM, first compound 0.1 µM): 101%
- viability, T/C (second compound 0.1 µM, first compound 0.316 µM): 105%
- viability, T/C (second compound 0.1 µM, first compound 1 µM): 99%
- viability, T/C (second compound 0.1 µM, first compound 3.16 µM): 91.7%
- viability, T/C (second compound 0.1 µM, first compound 10 µM): 94.2%
- viability, T/C (second compound 0.316 µM, first compound 0.0316 µM): 99.5%
- viability, T/C (second compound 0.316 µM, first compound 0.1 µM): 112%
- viability, T/C (second compound 0.316 µM, first compound 0.316 µM): 86.7%
- viability, T/C (second compound 0.316 µM, first compound 1 µM): 108%
- viability, T/C (second compound 0.316 µM, first compound 3.16 µM): 106%
- viability, T/C (second compound 0.316 µM, first compound 10 µM): 95.9%
- viability, T/C (second compound 1 µM, first compound 0.0316 µM): 107%
- viability, T/C (second compound 1 µM, first compound 0.1 µM): 107%
- viability, T/C (second compound 1 µM, first compound 0.316 µM): 96.2%
- viability, T/C (second compound 1 µM, first compound 1 µM): 96.5%
- viability, T/C (second compound 1 µM, first compound 3.16 µM): 104%
- viability, T/C (second compound 1 µM, first compound 10 µM): 88.5%
- viability, T/C (second compound 3.16 µM, first compound 0.0316 µM): 112%
- viability, T/C (second compound 3.16 µM, first compound 0.1 µM): 97.7%
- viability, T/C (second compound 3.16 µM, first compound 0.316 µM): 105%
- viability, T/C (second compound 3.16 µM, first compound 1 µM): 87.4%
- viability, T/C (second compound 3.16 µM, first compound 3.16 µM): 110%
- viability, T/C (second compound 3.16 µM, first compound 10 µM): 94.9%
- viability, T/C (second compound 10 µM, first compound 0.0316 µM): 99%
- viability, T/C (second compound 10 µM, first compound 0.1 µM): 107%
- viability, T/C (second compound 10 µM, first compound 0.316 µM): 101%
- viability, T/C (second compound 10 µM, first compound 1 µM): 90.9%
- viability, T/C (second compound 10 µM, first compound 3.16 µM): 100%
- viability, T/C (second compound 10 µM, first compound 10 µM): 87.3%
